Measured values reported in patent US8394408B2, “Gastric retentive extended-release dosage forms comprising combinations of a non-opioid analgesic and an opioid analgesic” (Depomed, Inc., priority 2008, dated 2013).

What was measured:
[1] = cited from earlier work
[2] = Oxycodone degradation (DHOXY/OXY), effect of binder, 40° C., 75% RH open dish 8 days; format: physicochemical

SMILES | Solubility in water [1] | DHOXY/OXY (%), Physical Blend ([2]; 40° C., 75% RH, open-dish 8 days) | DHOXY/OXY (%), Physical Blend ([2]; t = 0)
COc1ccc2c3c1O[C@H]1C(=O)CC[C@H]4[C@@H](C2)N(C)CC[C@]314.O=C(O)C(O)C(O)C(=O)O [hydrocodone bitartrate] | 62.5 mg/mL |  | 
COc1ccc2c3c1O[C@H]1C(=O)CC[C@@]4(O)[C@@H](C2)N(C)CC[C@]314.Cl [oxycodone HCl] |  | 0.07% | 0.07%
